{"source": "patent US8568754B2", "about": "“Low-emission formaldehyde donor preparations and use thereof” (Air Liquide Sante (International), priority 2002, dated 2013)", "conditions": "not told", "data": [{"smiles": "CC1CN(CN2COC(C)C2)CO1", "note": "(centres unmarked) [No. 1, N,N′-methylenebis(5-methyloxazolidine)]", "values": [{"measurement": "efflux time from a DIN beaker 4 mm", "value": 22, "unit": "s"}, {"measurement": "efflux time from the DIN beaker 6 mm", "value": 6, "unit": "s"}]}]}
